In ChEMBL document CHEMBL4152370, “Identification of N-(5-(phenoxymethyl)-1,3,4-thiadiazol-2-yl)acetamide derivatives as novel protein tyrosine phosphatase epsilon inhibitors exhibiting anti-osteoclastic activity” (Bioorg Med Chem, 2018):
Calls of active or inactive are those of the source. The rule behind the calls is not given here.

Legend:
[1] = biological target: T1, Receptor-type tyrosine-protein phosphatase epsilon (Homo sapiens, UniProt P23469); assay: Inhibition of cytosolic PTPepsilon in human monocyte-derived osteoclasts assessed as relative level of Tyr530 phosphorylated c-Src/beta actin at 17 uM after 15 mins in presence of M-CSF/RANKL by Western blot method relative to control
[2] = tested on: Monocyte; assay: Inhibition of RANKL-induced human monocytes differentiation into osteoclasts after 4 days in presence of M-CSF by tartrate-resistant acid phosphatase staining based assay; type: functional, cell-based
[3] = tested on: Osteoclast; assay: Effect on relative level of total c-Src/beta-actin in human monocyte-derived osteoclasts at 17 uM after 15 mins in presence of M-CSF/RANKL by Western blot method relative to control; type: cell-based; conditions: 0.25 h
[4] = biological target: T1, Receptor-type tyrosine-protein phosphatase epsilon; assay: Inhibition of recombinant human cytosolic PTPepsilon expressed in Escherichia coli BL21 (DE3) using E527-P-Q-pY530-Q-P-G-E-N-L536 as substrate after 60 mins by malachite green assay
[5] = tested on: Osteoclast; assay: Cytotoxicity against human monocyte-derived osteoclasts assessed as effect on cell viability at 2 to 17 uM by formazan-based spectrometric method
[6] = biological target: T1, Receptor-type tyrosine-protein phosphatase epsilon; assay: Inhibition of cytosolic PTPepsilon in human monocyte-derived osteoclasts assessed as disruption of podosome organization at 17 uM after 4 days in presence of M-CSF/RANKL by DAPI staining-based immunofluorescence assay

T1 sequence (P23469 whole entry): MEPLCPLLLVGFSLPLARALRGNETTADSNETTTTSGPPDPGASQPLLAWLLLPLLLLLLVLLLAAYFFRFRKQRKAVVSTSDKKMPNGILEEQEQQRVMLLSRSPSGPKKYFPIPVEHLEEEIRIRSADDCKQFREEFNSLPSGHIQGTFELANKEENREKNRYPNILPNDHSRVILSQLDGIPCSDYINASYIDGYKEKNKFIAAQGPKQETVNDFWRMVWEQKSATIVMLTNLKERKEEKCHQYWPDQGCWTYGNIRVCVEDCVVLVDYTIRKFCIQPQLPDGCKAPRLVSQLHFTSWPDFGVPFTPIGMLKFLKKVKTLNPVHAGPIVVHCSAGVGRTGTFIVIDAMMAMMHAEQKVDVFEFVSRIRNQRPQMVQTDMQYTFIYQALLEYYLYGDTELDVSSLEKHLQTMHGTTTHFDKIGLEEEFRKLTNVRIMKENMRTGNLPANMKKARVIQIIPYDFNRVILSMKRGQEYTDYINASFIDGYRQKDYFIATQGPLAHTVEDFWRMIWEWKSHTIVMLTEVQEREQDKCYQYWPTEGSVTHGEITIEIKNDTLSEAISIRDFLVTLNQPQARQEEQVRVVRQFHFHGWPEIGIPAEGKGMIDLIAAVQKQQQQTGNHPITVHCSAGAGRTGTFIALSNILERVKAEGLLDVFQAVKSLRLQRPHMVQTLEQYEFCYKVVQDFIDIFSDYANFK

Compound | fold change (FC) [1] | inhibition [2] | fold change (FC) [3] | IC50 [4] [nM] | Activity [5] | inhibition [6]
Cc1ccc(NC(=O)Nc2nnc(COc3ccc(C)cc3C)s2)cc1 | 1.87 | Dose-dependent effect | 1.12 | 2470 | Non-Toxic | Active
Cc1ccc(OCc2nnc(NC(=O)Nc3ccc(F)c(Cl)c3)s2)c(C)c1 | 1.57 | Dose-dependent effect | 1.29 | 1860 | Non-Toxic | Active
CCC(C)c1ccc(OCc2nnc(NC(=O)Nc3ccccc3OC)s2)cc1 (stereo not given) | – | – | – | 4170 | – | –
O=C(COc1ccc2c(c1)OCO2)Nc1nnc(COc2ccc(Cl)cc2)s1 | – | – | – | 2010 | – | –
COc1ccccc1OCC(=O)Nc1nnc(COc2ccccc2)s1 | – | – | – | 3700 | – | –
